# Patent US20150274719A1, “AMINO-SUBSTITUTED IMIDAZO[1,2-A]PYRIDINECARBOXAMIDES AND THEIR USE” (BAYER PHARMA AKTIENGESELLSCHAFT, priority 2012, published 2015)
# Counter-ions that a name gives are not always drawn.
# Biological target: T1, recombinant guanylate cyclase reporter cell line (Rattus norvegicus, UniProt P19686+P20595)
# T1 construct: expressed in transfected cells; host or cells: recombinant reporter cell line
# T1 sequence (P19686 1-690): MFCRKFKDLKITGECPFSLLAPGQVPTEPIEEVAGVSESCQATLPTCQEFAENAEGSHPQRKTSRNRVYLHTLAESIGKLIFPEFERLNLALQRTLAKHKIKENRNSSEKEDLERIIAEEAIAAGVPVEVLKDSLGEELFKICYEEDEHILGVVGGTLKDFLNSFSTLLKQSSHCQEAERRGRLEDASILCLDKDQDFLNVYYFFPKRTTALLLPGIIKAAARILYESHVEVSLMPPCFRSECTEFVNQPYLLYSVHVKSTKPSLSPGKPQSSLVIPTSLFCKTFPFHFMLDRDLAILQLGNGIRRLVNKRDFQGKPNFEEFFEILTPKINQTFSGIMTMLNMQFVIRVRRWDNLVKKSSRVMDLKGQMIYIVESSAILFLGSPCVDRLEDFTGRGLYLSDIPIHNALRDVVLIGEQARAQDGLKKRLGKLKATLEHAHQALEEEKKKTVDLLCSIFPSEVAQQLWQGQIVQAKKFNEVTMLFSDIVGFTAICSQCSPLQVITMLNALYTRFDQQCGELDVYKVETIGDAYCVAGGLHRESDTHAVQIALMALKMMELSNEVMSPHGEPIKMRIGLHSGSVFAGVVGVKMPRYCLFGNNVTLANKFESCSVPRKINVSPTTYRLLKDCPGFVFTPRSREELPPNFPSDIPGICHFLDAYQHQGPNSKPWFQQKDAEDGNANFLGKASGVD
# T1 sequence (P20595 1-619): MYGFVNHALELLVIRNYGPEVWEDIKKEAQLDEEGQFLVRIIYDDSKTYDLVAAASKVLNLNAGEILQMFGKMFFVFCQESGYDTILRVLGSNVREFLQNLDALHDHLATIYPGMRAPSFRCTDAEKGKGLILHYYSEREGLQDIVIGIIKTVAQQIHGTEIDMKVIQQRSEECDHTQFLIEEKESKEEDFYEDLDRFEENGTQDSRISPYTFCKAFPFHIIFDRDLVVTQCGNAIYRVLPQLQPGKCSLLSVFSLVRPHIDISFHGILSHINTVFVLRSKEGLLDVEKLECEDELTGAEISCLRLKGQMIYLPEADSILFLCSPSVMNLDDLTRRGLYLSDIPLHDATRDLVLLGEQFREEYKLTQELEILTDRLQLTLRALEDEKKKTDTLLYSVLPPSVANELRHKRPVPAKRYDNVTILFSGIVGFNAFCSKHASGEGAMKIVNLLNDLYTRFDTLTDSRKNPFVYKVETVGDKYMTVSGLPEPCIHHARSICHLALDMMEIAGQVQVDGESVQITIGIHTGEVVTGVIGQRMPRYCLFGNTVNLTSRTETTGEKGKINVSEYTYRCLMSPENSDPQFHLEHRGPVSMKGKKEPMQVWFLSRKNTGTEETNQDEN
# Assay: Action on recombinant guanylate cyclase reporter cell line
# Assay type: cell-based
# Conditions: in some cases mean values from individual determinations
# Summary of the method: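 MEC values, meaning the lowest concentration producing a detectable response, were taken from a recombinant cyclase reporter cell assay. Where repeated, individual determinations were averaged.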
row,SMILES,MEC (minimal effective concentration) [µM]
1,"Cc1nc2c(OCc3c(F)cccc3F)cccn2c1C(=O)NCC(C)(N)CC(C)C (single isomer, unassigned) [Example 203, ent-N-(2-Amino-2,4-dimethylpentyl)-8-[(2,6-difluorobenzyl)oxy]-2-methylimidazo[1,2-a]pyridine-3-carboxamide]",0.10
2,"Cc1nc2c(OCc3c(F)cccc3F)cccn2c1C(=O)NCC(C)(N)CCO (single isomer, unassigned; enantiomer a) [Example 272, ent-N-(2-Amino-4-hydroxy-2-methylbutyl)-8-[(2,6-difluorobenzyl)oxy]-2-methylimidazo[1,2-a]-pyridine-3-carboxamide (Enantiomer A)]",5.5
3,"Cc1nc2c(OCc3c(F)cccc3F)cccn2c1C(=O)NC1CNc2ccccc21 (racemic) [Example 28, rac-8-[(2,6-difluorobenzyl)oxy]-N-(2,3-dihydro-1H-indol-3-yl)-2-methylimidazo[1,2-a]pyridine-3-carboxamide]",0.30
4,"Cc1nc2c(OCc3c(F)cccc3F)cc(Cl)cn2c1C(=O)NCC1CCCCN1 (single isomer, unassigned; ent-6) [Example 190, ent-6-Chloro-8-[(2,6-difluorobenzyl)oxy]-2-methyl-N-(piperidin-2-ylmethyl)imidazo[1,2-a]-pyridine-3-carboxamide]",1.00
5,"Cc1cc(OCc2c(F)cccc2F)c2nc(C)c(C(=O)NC(C#N)CN)n2c1 (racemic) [Example 416, rac-N-(2-amino-1-cyanoethyl)-8-[(2,6-difluorobenzyl)oxy]-2,6-dimethylimidazo[1,2-a]pyridine-3-carboxamide]",1.00
6,"CCCC(C)(N)CNC(=O)c1c(C)nc2c(OCc3c(F)cccc3F)c(F)ccn12 (racemic) [Example 277, rac-N-(2-Amino-2-methylpentyl)-8-[(2,6-difluorobenzyl)oxy]-7-fluoro-2-methylimidazo[1,2-a]-pyridine-3-carboxamide]",1.00
7,"Cc1nc2c(OCc3c(F)cccc3F)cccn2c1C(=O)NC(CN1CCOCC1)c1ccccc1 (racemic) [Example 134, rac-8-[(2,6-difluorobenzyl)oxy]-2-methyl-N-[2-(morpholin-4-yl)-1-phenylethyl]imidazo[1,2-a]-pyridine-3-carboxamide]",3.00
8,"Cc1cc(OCc2c(F)cccc2F)c2nc(C)c(C(=O)NCC(C)N3CCOCC3)n2c1 (single isomer, unassigned; ent-8) [Example 186, ent-8-[(2,6-Difluorobenzyl)oxy]-2,6-dimethyl-N-[2-(morpholin-4-yl)propyl]imidazo[1,2-a]-pyridine-3-carboxamide]",0.30
9,"Cc1nc2c(OCc3c(F)cccc3F)cc(Cl)cn2c1C(=O)NCCN1CCN(C)CC1 [Example 154, 6-chloro-8-[(2,6-difluorobenzyl)oxy]-2-methyl-N-[2-(4-methylpiperazin-1-yl)ethyl]imidazo[1,2-a]pyridine-3-carboxamide]",1.00
10,"COc1ccc(CC(C)(N)CNC(=O)c2c(C)nc3c(OCc4c(F)cccc4F)cc(C)cn23)cc1 (racemic) [Example 368, rac-N-[2-amino-3-(4-methoxyphenyl)-2-methylpropyl]-8-[(2,6-difluorobenzyl)oxy]-2,6-dimethylimidazo[1,2-a]pyridine-3-carboxamide]",0.10
11,"Cc1nc2c(OCc3c(F)cccc3F)cccn2c1C(=O)NC(CN)c1ccccc1 (racemic) [Example 16, rac-N-(2-Amino-1-phenylethyl)-8-[(2,6-difluorobenzyl)oxy]-2-methylimidazo[1,2-a]pyridine-3-carboxamide dihydrochloride]",0.30
